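Exposure lasted 48 hours, with cells grown in 96-well plates and compounds tested at five concentrations. At the GI50, growth is halved.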 Active and inactive are the calls of the source. Rule as the data show it: active = GI50 up to about 1.1 µM and inactive = higher.
Experiments:
Assay in all cases: growth of human tumour cells (NCI), 48 h
PC-3 = test system: PC-3
RXF 393 = test system: RXF 393
SF-539 = test system: SF-539
OVCAR-4 = test system: OVCAR-4
T47D = test system: T47D
UACC-257 = test system: UACC-257
MDA-N = test system: MDA-N
IGROV-1 = test system: IGROV-1
786-0 = test system: 786-0
MDA-MB-435 = test system: MDA-MB-435
NCI-H460 = test system: NCI-H460
RPMI-8226 = test system: RPMI-8226
SK-MEL-28 = test system: SK-MEL-28
HOP-62 = test system: HOP-62
COLO 205 = test system: COLO 205
A549 = test system: A549
UACC-62 = test system: UACC-62
SNB-75 = test system: SNB-75
KM12 = test system: KM12
UO-31 = test system: UO-31

Row | SMILES | GI50 (PC-3) | GI50 (RXF 393) | GI50 (SF-539) | GI50 (OVCAR-4) | GI50 (T47D) | GI50 (UACC-257) | GI50 (MDA-N) | GI50 (IGROV-1) | GI50 (786-0) | GI50 (MDA-MB-435) | GI50 (NCI-H460) | GI50 (RPMI-8226) | GI50 (SK-MEL-28) | GI50 (HOP-62) | GI50 (COLO 205) | GI50 (A549) | GI50 (UACC-62) | GI50 (SNB-75) | GI50 (KM12) | GI50 (UO-31)
1 | COc1ccc2c(Cl)cc(NC(=S)Nc3ccccc3)nc2c1 | 28.6 µM (inactive) | 20.2 µM (inactive) | 32.6 µM (inactive) | 32.4 µM (inactive) | 14.5 µM (inactive) | 60.8 µM (inactive) | 15.4 µM (inactive) | 20.8 µM (inactive) | 22.3 µM (inactive) | 17.7 µM (inactive) | 32.3 µM (inactive) | 21.2 µM (inactive) | 33.6 µM (inactive) | 35.5 µM (inactive) | 31.2 µM (inactive) | 29.5 µM (inactive) | 17.2 µM (inactive) | 23.6 µM (inactive) | 18.7 µM (inactive) | –
2 | N#CC1=C(N)N(c2ccccc2)C(c2ccccc2)C1(C#N)C#N (stereo unspecified) | 17.7 µM (inactive) | 15 µM (inactive) | 14.7 µM (inactive) | 19.6 µM (inactive) | 10.4 µM (inactive) | 19.1 µM (inactive) | 19.3 µM (inactive) | 15.7 µM (inactive) | 17.5 µM (inactive) | 18.8 µM (inactive) | – | 14.8 µM (inactive) | 16.7 µM (inactive) | 18 µM (inactive) | 17.2 µM (inactive) | 17.8 µM (inactive) | 18.2 µM (inactive) | 15.3 µM (inactive) | 14.5 µM (inactive) | 18.1 µM (inactive)
3 | O=C1/C(=N/O)Cc2c(Br)ccc(Br)c21 | 27.8 µM (inactive) | 99.3 µM (inactive) | > 100 µM (inactive) | 33.3 µM (inactive) | 51.3 µM (inactive) | 42.2 µM (inactive) | 48.3 µM (inactive) | 40 µM (inactive) | 74 µM (inactive) | 39.6 µM (inactive) | 37.6 µM (inactive) | 24.4 µM (inactive) | 60.3 µM (inactive) | > 100 µM (inactive) | – | – | – | > 100 µM (inactive) | 67.3 µM (inactive) | > 100 µM (inactive)
4 | CC1C(O)Oc2cc3c(cc2C1c1ccccc1O)OCO3 (stereo unspecified) | 19.5 µM (inactive) | 14.3 µM (inactive) | 27.9 µM (inactive) | – | 30.4 µM (inactive) | 30.1 µM (inactive) | 30.5 µM (inactive) | 28 µM (inactive) | 39.4 µM (inactive) | 29.9 µM (inactive) | 23.4 µM (inactive) | 16.7 µM (inactive) | 25.8 µM (inactive) | 65 µM (inactive) | 16.2 µM (inactive) | 30.1 µM (inactive) | 29.5 µM (inactive) | 24.6 µM (inactive) | 32.1 µM (inactive) | 28.8 µM (inactive)
5 | Cc1ccc(Cl)c2[nH]c(-c3ccccc3)cc(=O)c12 | 23.3 µM (inactive) | 44 µM (inactive) | – | 37.8 µM (inactive) | 11.5 µM (inactive) | 40.9 µM (inactive) | 22.3 µM (inactive) | 33.7 µM (inactive) | 90.4 µM (inactive) | 21.1 µM (inactive) | 37 µM (inactive) | 36.1 µM (inactive) | 39.7 µM (inactive) | 78.3 µM (inactive) | 40.9 µM (inactive) | 24.1 µM (inactive) | 48.2 µM (inactive) | 36.1 µM (inactive) | 21.4 µM (inactive) | –
6 | COc1ccc2[nH]c3c(C)c4ncccc4c(C)c3c2c1 | 6.11 µM (inactive) | 3.59 µM (inactive) | 4.73 µM (inactive) | 7.43 µM (inactive) | > 10 µM (inactive) | > 10 µM (inactive) | 6.81 µM (inactive) | > 10 µM (inactive) | 1.52 µM (inactive) | 1.82 µM (inactive) | 2.12 µM (inactive) | 3.44 µM (inactive) | 1.99 µM (inactive) | 6.84 µM (inactive) | 6.95 µM (inactive) | 2.18 µM (inactive) | > 10 µM (inactive) | 9.91 µM (inactive) | 1.93 µM (inactive) | –
7 | CSc1ncnc2c1cnn2Cc1cn(COCCO)nn1 | 36 µM (inactive) | 46.6 µM (inactive) | > 100 µM (inactive) | 45.5 µM (inactive) | > 100 µM (inactive) | > 100 µM (inactive) | 18.5 µM (inactive) | 74.8 µM (inactive) | 18.7 µM (inactive) | 11.1 µM (inactive) | 32 µM (inactive) | 34.3 µM (inactive) | > 100 µM (inactive) | 64.7 µM (inactive) | 33.9 µM (inactive) | 51.8 µM (inactive) | 84.3 µM (inactive) | – | 23.2 µM (inactive) | > 100 µM (inactive)
8 | CCn1c(-c2ccc(OC)cc2)nc2c1C(=O)c1ccccc1C2=O | > 100 µM (inactive) | > 100 µM (inactive) | > 100 µM (inactive) | > 100 µM (inactive) | > 100 µM (inactive) | > 100 µM (inactive) | > 100 µM (inactive) | > 100 µM (inactive) | > 100 µM (inactive) | > 100 µM (inactive) | > 100 µM (inactive) | > 100 µM (inactive) | > 100 µM (inactive) | 59.6 µM (inactive) | > 100 µM (inactive) | > 100 µM (inactive) | > 100 µM (inactive) | > 100 µM (inactive) | > 100 µM (inactive) | –
9 | CC1(CNCc2ccccc2)CC(CCc2ccccc2)N(C(=O)c2ccc([N+](=O)[O-])cc2)C1Cc1ccc(O)cc1 (stereo unspecified) | 10.7 µM (inactive) | 5.04 µM (inactive) | 17.1 µM (inactive) | 9.91 µM (inactive) | 5.32 µM (inactive) | 12.4 µM (inactive) | 12.3 µM (inactive) | 15 µM (inactive) | 11.8 µM (inactive) | 14.2 µM (inactive) | 14 µM (inactive) | 17.3 µM (inactive) | 31 µM (inactive) | 15.8 µM (inactive) | 6.5 µM (inactive) | 10.4 µM (inactive) | 13.1 µM (inactive) | – | 15.6 µM (inactive) | 11.3 µM (inactive)
10 | CCN(CCCl)c1ccc(NC(=O)c2cc(C(=O)NCCN(C)C)cc(C(=O)Nc3ccc(N(CC)CCCl)cc3)c2)cc1 | 2.22 µM (inactive) | 5.41 µM (inactive) | 1.62 µM (inactive) | 9.38 µM (inactive) | 18.7 µM (inactive) | 18.1 µM (inactive) | 11.1 µM (inactive) | 6.43 µM (inactive) | 0.942 µM (active) | 8.32 µM (inactive) | 0.713 µM (active) | 3.46 µM (inactive) | 16.6 µM (inactive) | 1.82 µM (inactive) | – | 6.24 µM (inactive) | 4.98 µM (inactive) | 8.55 µM (inactive) | 8.65 µM (inactive) | > 100 µM (inactive)
11 | CC(NC(=N)N)C(=O)O (stereo unspecified) | > 100 µM (inactive) | > 100 µM (inactive) | – | > 100 µM (inactive) | > 100 µM (inactive) | > 100 µM (inactive) | > 100 µM (inactive) | > 100 µM (inactive) | > 100 µM (inactive) | > 100 µM (inactive) | – | > 100 µM (inactive) | > 100 µM (inactive) | > 100 µM (inactive) | > 100 µM (inactive) | > 100 µM (inactive) | > 100 µM (inactive) | > 100 µM (inactive) | > 100 µM (inactive) | > 100 µM (inactive)
12 | COC(=O)CCC(=O)c1ccc2c(c1)CC1(Cc3ccccc3C1)C2 | 41 µM (inactive) | > 100 µM (inactive) | > 100 µM (inactive) | 32.1 µM (inactive) | 39.1 µM (inactive) | 24.3 µM (inactive) | 49.1 µM (inactive) | > 100 µM (inactive) | 94.6 µM (inactive) | 64 µM (inactive) | – | 31.7 µM (inactive) | – | > 100 µM (inactive) | 29.4 µM (inactive) | 54.7 µM (inactive) | > 100 µM (inactive) | – | > 100 µM (inactive) | 42.9 µM (inactive)
13 | CCOP(=O)(/C=C\n1ccc(N)nc1=O)OCC | > 100 µM (inactive) | > 100 µM (inactive) | > 100 µM (inactive) | > 100 µM (inactive) | > 100 µM (inactive) | > 100 µM (inactive) | > 100 µM (inactive) | > 100 µM (inactive) | > 100 µM (inactive) | > 100 µM (inactive) | > 100 µM (inactive) | > 100 µM (inactive) | > 100 µM (inactive) | > 100 µM (inactive) | > 100 µM (inactive) | > 100 µM (inactive) | > 100 µM (inactive) | > 100 µM (inactive) | > 100 µM (inactive) | –
14 | O=C1C2=Cc3ccccc3OC2(O)Oc2cc(O)ccc21 (stereo unspecified) | > 100 µM (inactive) | > 100 µM (inactive) | > 100 µM (inactive) | – | > 100 µM (inactive) | > 100 µM (inactive) | > 100 µM (inactive) | > 100 µM (inactive) | > 100 µM (inactive) | > 100 µM (inactive) | – | > 100 µM (inactive) | > 100 µM (inactive) | > 100 µM (inactive) | > 100 µM (inactive) | > 100 µM (inactive) | > 100 µM (inactive) | > 100 µM (inactive) | > 100 µM (inactive) | –
15 | C/C(=C\COc1ccc2ccc(=O)oc2c1)C1=CC(=O)C(C)(C)O1 [GEIPARVARIN] | 6.58 µM (inactive) | 2.01 µM (inactive) | 2.17 µM (inactive) | 3.08 µM (inactive) | 3.68 µM (inactive) | 4.69 µM (inactive) | 3.28 µM (inactive) | 4.63 µM (inactive) | 3.74 µM (inactive) | 3.48 µM (inactive) | – | 2.04 µM (inactive) | 4.23 µM (inactive) | 5.47 µM (inactive) | 4.14 µM (inactive) | 7.67 µM (inactive) | 3.94 µM (inactive) | 5.01 µM (inactive) | – | 6.11 µM (inactive)
